Data taken from ChEMBL document CHEMBL1148396, “Structure-activity relationships of N-acyl pyrroloquinolone PDE-5 inhibitors” (J Med Chem, 2004).

Target: cGMP-specific 3',5'-cyclic phosphodiesterase (Homo sapiens, UniProt O76074)
Experiment: Inhibitory activity against human Phosphodiesterase 5

O=C(OCc1ccncc1)N1Cc2c(nc3ccccc3c2O)[C@@H]1c1ccc2c(c1)OCO2
Ki: 3.48 nM

O=C(C#Cc1ccccc1)N1Cc2c(nc3ccccc3c2O)C1c1ccc2c(c1)OCO2 (stereo not drawn)
Ki: 0.35 nM

O=S(=O)(Cc1ccccc1)N1Cc2c(nc3ccccc3c2O)C1c1ccc2c(c1)OCO2 (stereo not drawn)
Ki: 113 nM

Oc1c2c(nc3ccccc13)C(c1ccc3c(c1)OCO3)N(C/C=C/c1ccccc1)C2 (stereo not drawn)
Ki: 23.3 nM

O=C(CCc1ccccc1)N1Cc2c(nc3ccccc3c2O)C1c1ccc2c(c1)OCO2 (stereo not drawn)
Ki: 4.53 nM

O=C(OCc1ccncc1)N1Cc2c(nc3ccccc3c2O)[C@H]1c1ccc2c(c1)OCO2
Ki: 0.23 nM

O=C(/C=C/c1ccccc1)N1Cc2c(nc3ccccc3c2O)C1c1ccc2c(c1)OCO2 (stereo not drawn)
Ki: 0.22 nM

O=S(=O)(/C=C/c1ccccc1)N1Cc2c(nc3ccccc3c2O)C1c1ccc2c(c1)OCO2 (stereo not drawn)
Ki: 118 nM

O=C(OCc1ccncc1)N1Cc2c(nc3ccccc3c2O)C1c1ccc2c(c1)OCO2 (stereo not drawn)
Ki: 0.29 nM

O=C(Cc1ccccc1)N1Cc2c(nc3ccccc3c2O)C1c1ccc2c(c1)OCO2 (stereo not drawn)
Ki: 12.5 nM

CN(Cc1ccccc1)C(=O)N1Cc2c(nc3ccccc3c2O)C1c1ccc2c(c1)OCO2 (stereo not drawn)
Ki: 11 nM

O=C(OCc1ccccc1)N1Cc2c(nc3ccccc3c2O)C1c1ccc2c(c1)OCO2 (stereo not drawn)
Ki: 0.58 nM

O=C(NCc1ccccc1)N1Cc2c(nc3ccccc3c2O)C1c1ccc2c(c1)OCO2 (stereo not drawn)
Ki: 1.06 nM
